± gives the expanded uncertainty stated by the source.
Assay: activity coefficient (dimensionless); of the first substance listed, at infinite dilution; xn = mol fraction of the nth substance listed
Settings: Liquid, Chromatography, x1 = 0

Row | activity coefficient (298.15 K) | activity coefficient (308.15 K) | activity coefficient (318.15 K) | activity coefficient (328.15 K) | activity coefficient (338.15 K) | activity coefficient (348.15 K) | activity coefficient (358.15 K) | activity coefficient (368.15 K) | SMILES
1 | 0.717 ± 0.03 | 0.684 ± 0.029 | 0.655 ± 0.029 | 0.628 ± 0.029 | 0.604 ± 0.028 | 0.581 ± 0.028 | 0.563 ± 0.028 | 0.543 ± 0.028 | CO [methanol] + CCCC[N+]1(C)CCCC1.O=S(=O)([O-])C(F)(F)F
2 | 135 ± 6 | 122 ± 5 | 111 ± 5 | 100 ± 5 | 92.4 ± 4.1 | 85.2 ± 3.8 | 78.9 ± 3.5 | 73.3 ± 3.3 | CCCCCCCCC [nonane] + CCCC[N+]1(C)CCCC1.O=S(=O)([O-])C(F)(F)F
3 | 40.9 ± 1.8 | 38.4 ± 1.7 | 36.2 ± 1.6 | 34.3 ± 1.5 | 32.7 ± 1.5 | 31.2 ± 1.4 | 29.8 ± 1.3 | 28.6 ± 1.3 | C=CCCCCCC [oct-1-ene] + CCCC[N+]1(C)CCCC1.O=S(=O)([O-])C(F)(F)F
4 | 95.2 ± 4.3 | 86.9 ± 3.9 | 79.4 ± 3.5 | 73.1 ± 3.3 | 67.2 ± 3 | 62.9 ± 2.8 | 58.4 ± 2.6 | 54.4 ± 2.4 | CCCCCCCC [octane] + CCCC[N+]1(C)CCCC1.O=S(=O)([O-])C(F)(F)F
5 | 52.1 ± 2.3 | 46.1 ± 2.1 | 40.3 ± 1.8 | 35.9 ± 1.6 | 32.2 ± 1.4 | 28.9 ± 1.3 | 26.1 ± 1.2 | – | CCCCC [pentane] + CCCC[N+]1(C)CCCC1.O=S(=O)([O-])C(F)(F)F
6 | – | 1.26 ± 0.05 | 1.2 ± 0.05 | 1.14 ± 0.04 | 1.08 ± 0.04 | 1.04 ± 0.04 | 0.995 ± 0.035 | 0.953 ± 0.034 | CCCO [propan-1-ol] + CCCC[N+]1(C)CCCC1.O=S(=O)([O-])C(F)(F)F
7 | 1.38 ± 0.05 | 1.39 ± 0.06 | 1.41 ± 0.06 | 1.42 ± 0.06 | 1.43 ± 0.06 | 1.44 ± 0.06 | 1.45 ± 0.06 | 1.46 ± 0.06 | C1CCOC1 [tetrahydrofuran] + CCCC[N+]1(C)CCCC1.O=S(=O)([O-])C(F)(F)F
8 | 1.02 ± 0.04 | 1.04 ± 0.04 | 1.06 ± 0.04 | 1.08 ± 0.04 | 1.1 ± 0.04 | 1.11 ± 0.04 | 1.13 ± 0.04 | 1.14 ± 0.04 | c1ccsc1 [thiophene] + CCCC[N+]1(C)CCCC1.O=S(=O)([O-])C(F)(F)F
9 | – | – | 0.865 ± 0.032 | 0.83 ± 0.032 | 0.794 ± 0.031 | 0.765 ± 0.031 | 0.739 ± 0.03 | 0.712 ± 0.03 | O [water] + CCCC[N+]1(C)CCCC1.O=S(=O)([O-])C(F)(F)F

Row | SMILES | activity coefficient (298.15 K) | activity coefficient (308.15 K) | activity coefficient (318.15 K) | activity coefficient (328.15 K) | activity coefficient (338.15 K) | activity coefficient (348.15 K) | activity coefficient (358.15 K) | activity coefficient (368.15 K)
10 | Cc1ccccc1 [toluene] + CCCC[N+]1(C)CCCC1.O=S(=O)([O-])C(F)(F)F | 2.16 ± 0.09 | 2.19 ± 0.1 | 2.22 ± 0.1 | 2.25 ± 0.1 | 2.27 ± 0.1 | 2.3 ± 0.1 | 2.32 ± 0.1 | 2.35 ± 0.1

From the NIST ThermoML archive (doi:10.1016/j.fluid.2009.01.011)
